Measurements: ChEMBL document CHEMBL1201862, “PubChem BioAssay data set” (2004)
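Compound exposure: 48 hours, 5 concentrations, 96-well plates. GI50 marks 50% less growth.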 The source made the active and inactive calls. Cut-off read from the data, not from the text of the source: active = GI50 up to about 1.1 µM and inactive = higher.

Assays:
Test in all cases: NCI-60 cell line screen, 48 h
CAKI-1 = tested on: CAKI-1
HCC 2998 = tested on: HCC 2998
HCT-15 = tested on: HCT-15
HT-29 = tested on: HT-29
NCI-H226 = tested on: NCI-H226
NCI-H23 = tested on: NCI-H23
NCI-H522 = tested on: NCI-H522
OVCAR-8 = tested on: OVCAR-8
RPMI-8226 = tested on: RPMI-8226
SF-268 = tested on: SF-268
SK-MEL-28 = tested on: SK-MEL-28
SK-MEL-2 = tested on: SK-MEL-2
SK-OV-3 = tested on: SK-OV-3
SNB-19 = tested on: SNB-19
SNB-75 = tested on: SNB-75
U-251 = tested on: U-251
UO-31 = tested on: UO-31
MOLT-4 = tested on: MOLT-4
SR = tested on: SR
SF-539 = tested on: SF-539

Structure (SMILES) | GI50 (CAKI-1) | GI50 (HCC 2998) | GI50 (HCT-15) | GI50 (HT-29) | GI50 (NCI-H226) | GI50 (NCI-H23) | GI50 (NCI-H522) | GI50 (OVCAR-8) | GI50 (RPMI-8226) | GI50 (SF-268) | GI50 (SK-MEL-28) | GI50 (SK-MEL-2) | GI50 (SK-OV-3) | GI50 (SNB-19) | GI50 (SNB-75) | GI50 (U-251) | GI50 (UO-31) | GI50 (MOLT-4) | GI50 (SR) | GI50 (SF-539)
CC(C)C(=O)Cc1ccc2ccccc2n1 | > 100 µM (inactive) | > 100 µM (inactive) | > 100 µM | > 100 µM (inactive) | > 100 µM (inactive) | > 100 µM (inactive) | 50.5 µM (inactive) | > 100 µM (inactive) | 0.097 µM (active) | > 100 µM (inactive) | > 100 µM (inactive) | > 100 µM (inactive) | > 100 µM (inactive) | > 100 µM (inactive) | > 100 µM (inactive) | > 100 µM (inactive) | > 100 µM (inactive) |  |  | 
CSc1sc(C)cc1-c1nsc(=O)o1 | > 100 µM (inactive) | > 100 µM (inactive) | > 100 µM | > 100 µM (inactive) |  | > 100 µM (inactive) | > 100 µM (inactive) |  | > 100 µM (inactive) | > 100 µM (inactive) | > 100 µM (inactive) |  |  | > 100 µM (inactive) |  | > 100 µM (inactive) | > 100 µM (inactive) | > 100 µM (inactive) | > 100 µM (inactive) | 
COc1ccc2c(c1)OC(c1ccccc1O)CC2=O (stereo unspecified) | 51.5 µM (inactive) | 48.9 µM (inactive) | 27.2 µM | 74.6 µM (inactive) |  | 28.7 µM (inactive) | 27.9 µM (inactive) | 47.6 µM (inactive) | 23.9 µM (inactive) | 29.2 µM (inactive) | 48.2 µM (inactive) | 26.6 µM (inactive) |  | > 100 µM (inactive) | 30.9 µM (inactive) | 44.5 µM (inactive) | 18.1 µM (inactive) | 26.1 µM (inactive) |  | 45.9 µM (inactive)
O=C(NC(Cc1ccc(Cl)cc1)C(=O)O)c1ccc(I)cc1 (stereo unspecified) | > 100 µM (inactive) | 3.42 µM (inactive) | > 100 µM | > 100 µM (inactive) | > 100 µM (inactive) | > 100 µM (inactive) | > 83.2 µM (inactive) | > 100 µM (inactive) | 84.7 µM (inactive) | > 100 µM (inactive) | > 100 µM (inactive) | > 100 µM (inactive) | > 100 µM (inactive) | > 100 µM (inactive) | 86.3 µM (inactive) | > 100 µM (inactive) | > 100 µM (inactive) | > 75.9 µM (inactive) |  | > 100 µM (inactive)
CCc1ncc(C(C)(O)c2ccccc2)n1Cc1ccccc1 (stereo unspecified) | 35.4 µM (inactive) |  | 41.5 µM | 31.8 µM (inactive) | 21.5 µM (inactive) | 5.56 µM (inactive) | 42.1 µM (inactive) | 36.1 µM (inactive) | 32.3 µM (inactive) | 99.8 µM (inactive) | 33.4 µM (inactive) | 70.8 µM (inactive) | 67.6 µM (inactive) | 42.4 µM (inactive) | 48.6 µM (inactive) | 34.6 µM (inactive) | 55.1 µM (inactive) | 22.5 µM (inactive) | 14.8 µM (inactive) | 37.2 µM (inactive)
CC1=CC(=O)CC2(C)CCC(C(C)CC(=O)CC(C)C)CC12 (stereo unspecified) | 16.4 µM (inactive) |  | 38.6 µM | 25.8 µM (inactive) | 24.9 µM (inactive) | 35.4 µM (inactive) | 15.1 µM (inactive) | 24.5 µM (inactive) | 20.2 µM (inactive) | 55.8 µM (inactive) | 26 µM (inactive) | 78.9 µM (inactive) |  | > 100 µM (inactive) | > 100 µM (inactive) | 41.9 µM (inactive) | 31.2 µM (inactive) | 18.3 µM (inactive) | 20 µM (inactive) | 16.4 µM (inactive)
CC(O)(P(=O)(O)O)P(=O)(O)OCC(O)CN1CCOCC1 (stereo unspecified) | > 100 µM (inactive) | > 100 µM (inactive) | > 100 µM | > 100 µM (inactive) | > 100 µM (inactive) | > 100 µM (inactive) | > 100 µM (inactive) | > 100 µM (inactive) | > 100 µM (inactive) | > 100 µM (inactive) | > 100 µM (inactive) |  | > 100 µM (inactive) | > 100 µM (inactive) |  | > 100 µM (inactive) | > 100 µM (inactive) | > 100 µM (inactive) | > 100 µM (inactive) | 95.1 µM (inactive)
C=CCNC(=O)N(CCC)CCCC(NC(C)=O)C(=O)NCc1ccccc1 (stereo unspecified) | > 100 µM (inactive) |  | > 100 µM | > 100 µM (inactive) | 79.1 µM (inactive) | > 100 µM (inactive) | > 100 µM (inactive) | > 100 µM (inactive) | > 100 µM (inactive) | > 100 µM (inactive) | > 100 µM (inactive) | > 100 µM (inactive) | > 100 µM (inactive) | > 100 µM (inactive) | > 100 µM (inactive) | > 100 µM (inactive) | > 100 µM (inactive) | > 100 µM (inactive) |  | > 100 µM (inactive)
CCOC(=O)Cc1cc(OC)c(OC)cc1/C(Cl)=C(\CO)c1ccc(OC)c(OC)c1 | > 100 µM (inactive) |  | > 100 µM | > 100 µM (inactive) |  | 97.7 µM (inactive) |  | > 100 µM (inactive) | 37.5 µM (inactive) |  | 78 µM (inactive) |  | > 100 µM (inactive) | 50.2 µM (inactive) | 23.8 µM (inactive) | 64 µM (inactive) | 80.5 µM (inactive) | > 100 µM (inactive) |  | 
COc1cc(C2c3cc4c(cc3[C@@H](Nc3cccc(CO)c3)C3COC(=O)[C@H]23)OCO4)cc(OC)c1O (stereo partly specified) | 0.205 µM (active) | 1.73 µM (inactive) | 0.875 µM | 0.984 µM (active) | 0.308 µM (active) | 0.375 µM (active) | 1 µM (active) | 1.33 µM (inactive) | 0.244 µM (active) | 0.923 µM (active) | 2.24 µM (inactive) | 2.74 µM (inactive) | 1.61 µM (inactive) | 0.453 µM (active) | 0.94 µM (active) | 0.516 µM (active) | 0.541 µM (active) | 0.0448 µM (active) |  | 0.352 µM (active)
OC1(c2ccc(Cl)cc2)c2ccc3ccccc3c2C2=N[C@H]3CCCC[C@@H]3N21 (stereo partly specified) | 12.2 µM (inactive) |  | 4.75 µM |  | 43.8 µM (inactive) | 37 µM (inactive) | 10.3 µM (inactive) | 1.55 µM (inactive) | 7.73 µM (inactive) | 9.02 µM (inactive) | > 100 µM (inactive) | 38.5 µM (inactive) | 14 µM (inactive) | 36.8 µM (inactive) |  | 5.82 µM (inactive) | 5.73 µM (inactive) | 8.99 µM (inactive) |  | 5.71 µM (inactive)
O=c1c2cc(I)ccc2nc(-c2cccs2)n1O | 28.8 µM (inactive) | 30 µM (inactive) | 33.9 µM | 48.6 µM (inactive) | 52.6 µM (inactive) | 24.2 µM (inactive) | 37.5 µM (inactive) | 38.1 µM (inactive) | 27 µM (inactive) | 38.4 µM (inactive) | 65.8 µM (inactive) | 48.6 µM (inactive) |  | 22.2 µM (inactive) |  | 30.1 µM (inactive) | 49 µM (inactive) | 34.8 µM (inactive) | 33.8 µM (inactive) | 44.6 µM (inactive)
